According to ChEMBL document CHEMBL4376831, “Enhancing the Cell Permeability of Stapled Peptides with a Cyclic Cell-Penetrating Peptide” (J Med Chem, 2019):
Changes are numbered by the printed parent chain. The source made the active and inactive calls. No cut-off for these calls is given here. *1 amine or outer side, *2 acyl side, *3 side chain or, on linkers, in order; H or OH if unused. Where a SMILES comes first, the peptide text is derived from it. Bridges are numbered along the chain shown (N, C = ends). Roman numbers before positions name the chains, in order. [ ]: non-standard residue; d: D form. The star is where a group is joined. X1 = O=C(O)c1cc(C(=O)*)ccc1-c1c2ccc(=O)cc-2oc2cc(O)ccc12; 2Nal = N[C@@H](Cc1ccc2ccccc2c1)C(=O)O; mXylylene = c1cc(C[*:1])cc(C[*:2])c1; Dap = NC[C@H](N)C(=O)O; AEEA = NCCOCCOCC(=O)O

Experiments:
HeLa [1] = assay: Induction of cell membrane disruption in human HeLa cells incubated for 4 hrs using FAM-labeled compound by LDH assay; assay type: cell-based
[2] = target: E3 ubiquitin-protein ligase Mdm2 (Homo sapiens, UniProt Q00987); assay: Displacement of TMR-labelled PDI from human GST tagged MDM2 (1 to 139 residues) expressed in Escherichia coli BL21 (DE3) cells preincuabted for 1 hr with TMR-labelled PDI followed by compound addition and measured after 1 hr by fluorescence polarization assay
Sequence of E3 ubiquitin-protein ligase Mdm2 (Q00987 whole entry, the tested form may be a part): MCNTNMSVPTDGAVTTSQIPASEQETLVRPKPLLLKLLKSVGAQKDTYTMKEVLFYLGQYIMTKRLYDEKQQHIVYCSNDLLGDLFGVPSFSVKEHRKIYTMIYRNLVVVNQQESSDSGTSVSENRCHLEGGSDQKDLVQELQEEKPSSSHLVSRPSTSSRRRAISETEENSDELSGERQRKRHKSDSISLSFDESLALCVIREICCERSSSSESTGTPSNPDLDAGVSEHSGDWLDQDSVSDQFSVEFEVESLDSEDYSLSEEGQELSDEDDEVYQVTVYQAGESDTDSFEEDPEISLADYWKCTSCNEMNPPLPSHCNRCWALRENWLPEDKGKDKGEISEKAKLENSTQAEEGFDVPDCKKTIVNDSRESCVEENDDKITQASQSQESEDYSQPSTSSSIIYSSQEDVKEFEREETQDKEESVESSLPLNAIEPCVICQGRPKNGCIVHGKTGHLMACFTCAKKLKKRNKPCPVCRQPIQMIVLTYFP

SJSA-1 = settings: Homo sapiens
HeLa [3] = assay: Cytotoxicity against human HeLa cells incubated for 72 hrs using FAM-labeled compound by MTT assay; assay type: cell-based
[4] = target: T1, Catenin beta-1 (Homo sapiens) (UniProt P35222); assay: Inhibition of beta-catenin in human SW480 cells assessed as reduction in LGR5 mRNA expression; assay type: cell-based
T1 sequence (whole entry): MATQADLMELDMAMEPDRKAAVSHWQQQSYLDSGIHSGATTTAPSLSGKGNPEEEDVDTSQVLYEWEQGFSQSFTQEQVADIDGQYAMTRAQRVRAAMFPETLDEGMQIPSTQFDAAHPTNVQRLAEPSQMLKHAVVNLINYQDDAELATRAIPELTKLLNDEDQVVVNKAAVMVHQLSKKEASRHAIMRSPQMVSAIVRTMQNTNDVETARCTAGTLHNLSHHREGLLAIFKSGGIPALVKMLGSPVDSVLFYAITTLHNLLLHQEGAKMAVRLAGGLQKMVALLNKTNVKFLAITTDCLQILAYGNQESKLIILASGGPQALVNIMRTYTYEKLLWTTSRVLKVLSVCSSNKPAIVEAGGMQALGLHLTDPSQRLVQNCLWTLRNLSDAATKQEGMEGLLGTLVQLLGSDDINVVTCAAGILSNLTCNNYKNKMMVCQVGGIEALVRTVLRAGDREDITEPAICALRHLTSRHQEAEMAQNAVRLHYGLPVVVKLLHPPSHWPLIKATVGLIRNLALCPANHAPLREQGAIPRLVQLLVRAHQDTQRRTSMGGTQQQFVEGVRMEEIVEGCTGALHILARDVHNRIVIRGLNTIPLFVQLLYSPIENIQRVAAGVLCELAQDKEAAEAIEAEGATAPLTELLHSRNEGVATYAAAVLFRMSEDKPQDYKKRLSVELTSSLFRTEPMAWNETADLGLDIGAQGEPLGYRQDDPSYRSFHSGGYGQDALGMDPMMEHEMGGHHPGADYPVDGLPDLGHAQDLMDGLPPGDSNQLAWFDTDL

[5] = target: T1, Catenin beta-1 (Homo sapiens); assay: Inhibition of beta-catenin in human HCT116 cells assessed as reduction in axin2 mRNA expression; assay type: cell-based
SW480 [6] = assay: Antiproliferative activity against human SW480 cells incubated for 72 hrs by MTT assay; assay type: functional, cell-based
[7] = target: T1, Catenin beta-1 (Homo sapiens); assay: Inhibition of beta-catenin in human SW480 cells assessed as reduction in myc protein expression; assay type: cell-based
[8] = Half life in human serum at 100 uM measured up to 24 hrs by RP-HPLC analysis; assay type: ADME, cell-free
SW480 [9] = assay: Induction of cell membrane disruption in human SW480 cells up to 50 uM incubated for 4 hrs by LDH assay relative to control; assay type: functional, cell-based
[10] = target: T1, Catenin beta-1 (Homo sapiens); assay: Inhibition of beta-catenin in human SW480 cells assessed as reduction in axin2 protein expression; assay type: cell-based
SW480 [11] = assay: Antiproliferative activity against human SW480 cells incubated for 72 hrs by MTT assay relative to control; assay type: functional
[12] = target: T1, Catenin beta-1 (Homo sapiens); assay: Inhibition of beta-catenin in human HCT116 cells assessed as reduction in myc mRNA expression; assay type: cell-based
[13] = target: T1, Catenin beta-1 (Homo sapiens); assay: Inhibition of beta-catenin in human SW480 cells assessed as reduction in axin2 mRNA expression; assay type: cell-based
[14] = target: T1, Catenin beta-1 (Homo sapiens); assay: Inhibition of beta-catenin in human SW480 cells assessed as reduction in LGR5 protein expression; assay type: cell-based
[15] = target: T1, Catenin beta-1 (Homo sapiens); assay: Inhibition of beta-catenin in human HCT116 cells assessed as reduction in LGR5 mRNA expression; assay type: cell-based
[16] = target: T1, Catenin beta-1 (Homo sapiens); assay: Inhibition of beta-catenin in human SW480 cells assessed as reduction in myc mRNA expression; assay type: cell-based
[17] = target: T1, Catenin beta-1 (Homo sapiens); assay: Inhibition of beta-catenin in human HCT116 cells assessed as reduction in LGR5 protein expression; assay type: cell-based
[18] = target: T1, Catenin beta-1 (Homo sapiens); assay: Inhibition of beta-catenin in human HCT116 cells assessed as reduction in myc protein expression; assay type: cell-based
[19] = target: T1, Catenin beta-1 (Homo sapiens); assay: Inhibition of beta-catenin in human HCT116 cells assessed as reduction in axin2 protein expression; assay type: cell-based
MCF7 = assay: Antiproliferative activity against human MCF7 cells up to 20 uM incubated for 72 hrs by MTT assay; assay type: functional, cell-based
SW480 [20] = assay: Induction of apoptosis in human SW480 cells at 25 uM incubated for 48 hrs by Annexin V/propidium iodide-staining based flow cytometric analysis relative to control; assay type: functional
DLD-1 = assay: Induction of apoptosis in human DLD1 cells at 25 uM incubated for 48 hrs by Annexin V/propidium iodide-staining based flow cytometric analysis relative to control; assay type: functional
SW480 [21] = assay: Antiproliferative activity against human SW480 cells at 20 uM incubated for 72 hrs by MTT assay; assay type: functional, cell-based
Catenin beta-1 = target: T2, Catenin beta-1 (Mus musculus, UniProt Q02248); assay: Binding affinity to mouse GST tagged beta catenin (133 to 665 residues) expressed in Escherichia coli BL21 (DE3) cells incubated for 1 hr
T2 sequence (Q02248 whole entry): T1 sequence (whole entry) with P706A

CC(=O)N[C@@H](CC(C)C)C(=O)N[C@H](C(=O)N[C@@H](C)C(=O)N[C@H]1CC(=O)NCCCC[C@@H](C(=O)N[C@@H](CCC(N)=O)C(=O)N[C@@H](CC(C)C)C(=O)N[C@H](C(=O)N[C@@H](CO)C(=O)NCCOCCOCC(=O)N[C@@H](CCCCNC(=O)CC[C@@H]2NC(=O)[C@@H](CCCNC(=N)N)NC(=O)[C@H](CCCNC(=N)N)NC(=O)[C@@H](CCCNC(=N)N)NC(=O)[C@H](CCCNC(=N)N)NC(=O)[C@H](Cc3ccc4ccccc4c3)NC(=O)[C@@H](Cc3ccccc3)NC2=O)C(N)=O)[C@@H](C)O)NC(=O)[C@H](Cc2c[nH]c3ccccc23)NC(=O)[C@H](Cc2ccc(O)cc2)NC(=O)[C@H](Cc2cnc[nH]2)NC1=O)[C@@H](C)O
Activity (HeLa [1]): Toxic
IC50 [2]: > 20 µM
Activity (SJSA-1): inactive
Activity (HeLa [3]): Toxic

CC[C@H](C)[C@@H]1NC(=O)[C@@H](NC(=O)[C@H](CCC(=O)O)NC(=O)[C@@H]2CCCN2C(=O)[C@H](Cc2ccc(O)cc2)NC(=O)CNC(=O)CNC(C)=O)CC(=O)NCCCC[C@@H](C(=O)N[C@@H](Cc2cnc[nH]2)C(=O)N[C@@H](CC(C)C)C(=O)N[C@@H](CCC(N)=O)C(=O)N[C@@H](CCCNC(=N)N)C(=O)N[C@H](C(=O)N[C@H](C(=O)N[C@@H](CC(C)C)C(=O)NCCOCCOCC(=O)NCCOCCOCC(=O)N[C@@H](CNC(=O)CC[C@@H]2NC(=O)[C@@H](CCCNC(=N)N)NC(=O)[C@H](CCCNC(=N)N)NC(=O)[C@@H](CCCNC(=N)N)NC(=O)[C@H](CCCNC(=N)N)NC(=O)[C@H](Cc3ccc4ccccc4c3)NC(=O)[C@@H](Cc3ccccc3)NC2=O)C(N)=O)[C@@H](C)CC)C(C)C)NC(=O)[C@H](CC(=O)O)NC(=O)[C@H](CC(C)C)NC1=O (I: Ac-GGYPEDILDKHLQRVIL[AEEA][AEEA][Dap]-NH2 / II: cyclo([2Nal]R[dR]R[dR]E[dF]); lactam I:6-I:10; amide I:20-II:6)
inhibition [4]: Active
inhibition [5]: Active
Activity (SW480 [6]): Dose-dependent effect
EC50 (SW480 [6]; SW480, 72 h): 1200 nM
inhibition [7]: Active
half-life at 100 µM [8]: 120 min
Activity (SW480 [9]): inactive
inhibition [10]: Active
Activity (SW480 [11]): 60%
inhibition [12]: Active
inhibition [13]: Active
inhibition [14]: Active
inhibition [15]: Active
inhibition [16]: Active
inhibition [17]: Active
inhibition [18]: Active
inhibition [19]: Active
Activity (MCF7): inactive
Activity (SW480 [20]): 10%
Activity (DLD-1): 10%

CC[C@H](C)[C@@H]1NC(=O)[C@@H](NC(=O)[C@H](CCC(=O)O)NC(=O)[C@@H]2CCCN2C(=O)[C@H](Cc2ccc(O)cc2)NC(=O)CNC(=O)CNC(=O)c2ccc(-c3c4ccc(=O)cc-4oc4cc(O)ccc34)c(C(=O)O)c2)CSCc2cccc(c2)CSC[C@@H](C(=O)N[C@@H](Cc2cnc[nH]2)C(=O)N[C@@H](CC(C)C)C(=O)N[C@@H](CCC(N)=O)C(=O)N[C@@H](CCCNC(=N)N)C(=O)N[C@H](C(=O)N[C@H](C(=O)N[C@@H](CC(C)C)C(N)=O)[C@@H](C)CC)C(C)C)NC(=O)[C@H](CC(=O)O)NC(=O)[C@H](CC(C)C)NC1=O (X1-GGYPECILDCHLQRVIL-NH2; linker 6-10 via mXylylene)
Activity (SW480 [21]): Active
Kd (Catenin beta-1): 18 nM
